In patent US9801856B2, “Composition of a 5-HT2A serotonin receptor modulator useful for the treatment of disorders related thereto” (Arena Pharmaceuticals, Inc., priority 2008, dated 2017):
“Also recorded” adds a separate entry of the source.

Tests used:
JC virus = conditions: cited from earlier work
5-HT2A [1] = target: T1, 5-HT2A (Rattus norvegicus, UniProt P14842); conditions: in vivo; cited from earlier work
5-HT2 receptor = conditions: glaucoma patients; cited from earlier work
[2] = target: T2, 5-HT2A serotonin receptor (Homo sapiens, UniProt P28223); conditions: cited from earlier work
T2 sequence (P28223 whole entry): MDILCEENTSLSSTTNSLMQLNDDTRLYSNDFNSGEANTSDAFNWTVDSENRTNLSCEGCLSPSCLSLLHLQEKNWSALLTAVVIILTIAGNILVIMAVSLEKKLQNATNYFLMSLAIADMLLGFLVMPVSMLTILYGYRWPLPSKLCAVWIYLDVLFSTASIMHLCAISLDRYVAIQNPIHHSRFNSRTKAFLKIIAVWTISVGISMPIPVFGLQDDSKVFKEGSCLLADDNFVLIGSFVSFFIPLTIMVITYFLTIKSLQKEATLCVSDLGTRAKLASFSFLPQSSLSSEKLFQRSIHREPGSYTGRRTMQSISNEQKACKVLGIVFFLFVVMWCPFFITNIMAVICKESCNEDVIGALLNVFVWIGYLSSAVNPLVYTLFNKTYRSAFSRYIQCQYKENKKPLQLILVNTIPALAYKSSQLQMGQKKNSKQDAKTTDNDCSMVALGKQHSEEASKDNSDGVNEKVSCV

5-HT2A [3] = target: T1, 5-HT2A; set-up: host or cells: diabetic rats, in vivo; conditions: spontaneously hypertensive rats; cited from earlier work
[4] = Methyl cellulose optimization: Form I to Form II conversion in water pastes (PXRD); type: physicochemical
Protocol: In a small scintillation vial, 152.13 mg of micronized APD125 Form I, was spiked with sufficient deionized water to make a paste; the weight of the water added, 844.60 mg was recorded, and the resulting mixture was stirred using a spatula to obtain a paste. The resulting sample, post-collection of an initial PXRD pattern, was capped, wrapped in tinfoil and stored at 40° C. until the next day, when a second PXRD pattern was obtained.
Using another small scintillation vial, 2.1183 g of micronized APD125 Form I, was mixed with 3.3619 g of a 0.5% w/v methyl cellulose to obtain a paste, which was immediately sampled for PXRD analysis to verify starting APD125 solid-state form, post-methyl cellulose addition. The remaining sample in the scintillation vial was split into two portions, placed in capped, parafilm-wrapped scintillation vials, which were then wrapped in tinfoil and stored at 40° C. and room temperature, respectively. […]
APD125 micronized Form I/PVP (1:8) blend, weighing 3.0081 g and containing 0.5% w/w methyl cellulose, was mixed with 3.71277 g of water to form a paste. After sampling the paste for an initial PXRD pattern, the remaining paste was split into two portions, placed in capped, parafilm-wrapped scintillation vials, which were then wrapped in tinfoil and stored at 40° C. and room temperature, respectively. PXRD patterns were collected at initial (t=0), 1-day, 7-day and 21-day time points.
For each blend, materials were dispensed (minus magnesium stearate) into a glass vial and blended for about 5 minutes. Magnesium stearate was added and the mixture was blended an additional 2 minutes. The final blend was compacted into standard round concave tablets ( 5/16″ diameter) with a total tablet weight of 200 mg and hardness of 10 kp using a Carver press. For each batch of tablets, several were crushed using a mortar and pestle to obtain a fine powder, from which a small sample was taken for PXRD analysis to confirm the initial APD125 polymorphic form. The remaining powder was weighed into a Qorpak® bottle, and ca. 50% w/w deionized water was added. The resulting mixture was stirred using a micro-spatula to wet the powder and form a paste. A Teflon® lid was screwed on tightly, and the prepared samples were stored in a 40° C. oven.
(§1) PXRD measurements were obtained using a Philips (PANalytical) X'Pert PRO theta/theta diffractometer (EQ 0233) equipped with an X'Celerator RTMS detector and utilizing copper Kα radiation, operating at 45 kV and 40 mA. The instrument radius was 239.5 mm, the mask filter was 20 mm, the soller slit was 0.04 radians, and a nickel filter and sample spinning were used during data acquisition. The application and instrument control software used were X'Pert Data Collector®, version 2.0c and XPERT-PRO®, version 1.6, respectively. The API-based paste samples were scanned from 5° to 40° 2θ in continuous mode, using a step size of 0.0167° 2θ and a counting time of 40.005 seconds. The tablet granulation samples were scanned from 2° to 15° 2θ in continuous mode, using a step size of 0.0167° 2θ and a counting time of 1063.625 s.

[5] = Effect of milling and compression upon APD125 Form I (PXRD); type: physicochemical
Protocol: Micronized APD125 Form I, was ground using a mortar and pestle, with samples withdrawn at 1-min, 5-min and 10-min time points for PXRD analyses to evaluate the impact of grinding upon the solid-state form of APD125 Form I. PXRD patterns were obtained pre- and post-milling. Additionally, micronized APD125 Form I, was compressed at 2 kp, 5 kp and 10 kp for 1 min per sample using a Carver press. The samples were then removed from the Carver press and lightly broken up using a mortar and pestle, prior to PXRD analysis to evaluate the impact of compression upon the solid-state form of APD125 Form I. PXRD patterns were obtained pre- and post-compression.
as §1, with “The” for “The API-based paste”, “2θ.” for “2θ and a counting time of 40.005 seconds. The tablet granulation samples were scanned from 2° to 15° 2θ in continuous mode, using a step size of 0.0167° 2θ and a counting time of 1063.625 s.”

5-HT2A [6] = target: T3, 5-HT2A (Homo sapiens, UniProt P28223); set-up: host or cells: human patients, in vivo; conditions: humans, lumbar disc herniation; cited from earlier work
T3 sequence (P28223 whole entry): as above

5-HT2A [7] = target: T3, 5-HT2A; set-up: host or cells: patients, in vivo; conditions: 24 months of treatment; cited from earlier work
5-HT2A [8] = target: T1, 5-HT2A; set-up: host or cells: diabetic rats, in vivo; conditions: rats, cited from earlier work
[9] = Aqueous solubility of APD125; type: physicochemical
[10] = target: T2, 5-HT2A serotonin receptor; assay: Phase 1 trials: waking EEG; type: in vivo, humans
[11] = Stability of APD125 in solution; type: physicochemical; conditions: in solution at 25° C.
[12] = target: T2, 5-HT2A serotonin receptor; assay: Afternoon nap model of insomnia in normal volunteers; type: in vivo, humans
[13] = target: T2, 5-HT2A serotonin receptor; assay: 5-HT2A serotonin receptor inverse agonist activity; type: biochemical
[14] = target: T2, 5-HT2A serotonin receptor; assay: Phase 2 trial: sleep maintenance versus placebo; type: in vivo, humans

T1 sequence (P14842 whole entry): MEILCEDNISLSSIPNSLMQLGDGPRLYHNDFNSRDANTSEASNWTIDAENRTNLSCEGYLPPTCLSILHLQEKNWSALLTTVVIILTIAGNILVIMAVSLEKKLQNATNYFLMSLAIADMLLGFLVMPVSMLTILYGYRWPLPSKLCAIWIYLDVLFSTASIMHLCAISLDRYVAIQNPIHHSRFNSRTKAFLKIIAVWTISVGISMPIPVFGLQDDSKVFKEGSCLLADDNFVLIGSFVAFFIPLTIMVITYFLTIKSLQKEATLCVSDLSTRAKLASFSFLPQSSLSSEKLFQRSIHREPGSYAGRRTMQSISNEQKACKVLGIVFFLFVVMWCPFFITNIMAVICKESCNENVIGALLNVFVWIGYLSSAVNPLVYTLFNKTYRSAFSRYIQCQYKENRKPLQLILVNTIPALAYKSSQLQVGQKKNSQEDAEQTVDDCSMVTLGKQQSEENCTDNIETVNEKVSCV

## O=C(c1ccc(F)cc1)C1CCN(CCn2c(=O)[nH]c3ccccc3c2=O)CC1 [ketanserin]
JC virus
  JC virus infection of human glial cells: inhibited
5-HT2A [1]
  protection during heatstroke: protect against circulatory shocks, intracranial hypertension and cerebral ischemia during heatstroke
5-HT2 receptor
  IOP: significantly lower IOP
[2]
  activity at 5-HT2A: inverse agonist activity
5-HT2A [3]
  blood pressure: stabilize blood pressure

## COc1ccc(NC(=O)Nc2ccc(F)cc2F)cc1-c1c(Br)cnn1C [APD125 Form I, 1-[3-(4-bromo-2-methyl-2H-pyrazol-3-yl)-4-methoxy-phenyl]-3-(2,4-difluoro-phenyl)-urea]
[4]; aqueous 0.5% w/w methyl cellulose at 40° C. after 10 days (FIG. 8, text)
  polymorphic form by PXRD: no evidence of conversion to Form II
[4]; aqueous 0.5% w/w methyl cellulose, room temperature and 40° C. after 16 days (FIG. 8 legend)
  polymorphic form by PXRD: substantially converted to Form II
[4]; paste in water alone at 40° C.
  polymorphic form by PXRD: converted to Form II within 24 hours
[4]; paste in water alone at room temperature and 40° C. after 24 h (FIG. 9 legend)
  polymorphic form by PXRD: substantially converted to Form II
[4]; suspended in aqueous 0.5% w/w methyl cellulose, 21 days at room temperature
  polymorphic form by PXRD: did not convert to Form II
[5]; compressed at 2 kp, 5 kp and 10 kp
  PXRD pattern after compression: all substantially comprise Form I; also recorded: consistent with APD125 Form I
[5]; mortar and pestle for 1 minute, 5 minutes and 10 minutes, listed as micronized APD125 Form I
  PXRD pattern after grinding: all substantially comprise Form I; also recorded: No significant changes in the PXRD patterns were observed

## COc1cccc(CCc2ccccc2OCC(CN(C)C)OC(=O)CCC(=O)O)c1 (stereo not shown) [sarpogrelate]
5-HT2A [6]
  lower back pain, leg pain and numbness associated with sciatica: effective treatment
5-HT2 receptor
  IOP: significantly lower IOP
5-HT2A [7]
  urinary albumin excretion level: significantly reduced
5-HT2A [8]; intraperitoneal administration
  thermal induced pain: significant analgesic effect
5-HT2A [8]; intrathecal or intraperitoneal administration
  inflammatory pain: significant analgesic effect

## COc1ccc(NC(=O)Nc2ccc(F)cc2F)cc1-c1c(Br)cnn1C [APD125, 1-[3-(4-bromo-2-methyl-2H-pyrazol-3-yl)-4-methoxy-phenyl]-3-(2,4-difluoro-phenyl)-urea]
[9]; aqueous buffer, phosphate buffer (about pH 7)
  solubility: ≤ 10 µg/mL
[9]; deionized water, water
  solubility: ≤ 10 µg/mL
[9]; saline (about 0.9% NaCl solution), saline or isotonic
  solubility: ≤ 10 µg/mL
[9]; simulated gastric fluid, 0.01 N HCl (about pH 2)
  solubility: ≤ 10 µg/mL
[10]
  dose of maximal effects on waking EEG: 40 to 80 mg
  effects on waking EEG: vigilance-lowering effects
[10]; waking EEG
  time of peak effects after dosing: 2 to 4 h
[11]
  stability in solution: somewhat labile
[12]; human, in vivo
  REM sleep: at the expense of REM sleep
  microarousals, number of sleep stage shifts and number of awakenings after sleep onset: decreased
  sleep onset latency: not decreased
[12]; primarily during the early part of sleep
  slow wave sleep and associated parameters: increased slow wave sleep and associated parameters in a dose-dependent manner
[13]
  activity at the 5-HT2A serotonin receptor: potent and selective 5-HT2A serotonin receptor inverse agonist
[14]; compared to placebo
  measurements of sleep maintenance: statistically significant improvements
[14]; in vivo
  next day cognitive effects: without any limiting next day cognitive effects

## Cc1nc2sccn2c(=O)c1CCN1CCC(=C(c2ccc(F)cc2)c2ccc(F)cc2)CC1 [ritanserin]
JC virus
  JC virus infection of human glial cells: inhibited
[2]
  activity at 5-HT2A: inverse agonist activity
